Experimental data: patent publication US20250011368A1, “DLL3 TARGETING PEPTIDES AND CONSTRUCTS THEREOF” (MARIANA ONCOLOGY INC., priority 2023, published 2025)
Numbered stars: 1 amine (or outer) side, 2 acyl side, 3 side chain; on linkers, the order of the positions; unused ones are H or OH. Bridge positions count the residues as written; N and C are the ends. Square brackets hold non-standard residues; d marks the D form. Peptide text beside a SMILES is read from it. * marks the point of attachment. Ala(piperidin-4-yl) = O=C([C@H](CC1CCN([*:3])CC1)N[*:1])[*:2]; DOTA = O=C(O)CN1CCN(CC(=O)O)CCN(CC(=O)*)CCN(CC(=O)O)CC1; Ala(morpholin-4-yl) = N[C@@H](CN1CCOCC1)C(=O)O; 2Nal = N[C@@H](Cc1ccc2ccccc2c1)C(=O)O; 3Pal = N[C@@H](Cc1cccnc1)C(=O)O; 4Pal = N[C@@H](Cc1ccncc1)C(=O)O

Legend:
CT26.DLL3 cells [1] = assay: Cell binding (total uptake) of [177Lu]Lu-test peptide, CT26.DLL3 cells; assay type: cell-based; conditions: 1 hour at 37° C.
Protocol: (§1) [^177Lu]LuCl3 was received from venders in HCl solution. For every mCi of [^177Lu]LuCl3 added to the reaction vial (1.5 mL Eppendorf vial), ammonium acetate buffer (0.2 M, pH 4.9, 100 μL, containing 1% w/v ascorbic acid and 6% v/v ethanol) and peptide conjugate (1 nmol). A peptide conjugate of the present disclosure is also referred to herein as a “chelator-peptide”. The pH of the solution was determined to be approximately 5 by using pH strips. The reaction vial was incubated at 80° C., 700 RPM for 17-20 minutes. A sample from the reaction was analyzed by RP-HPLC using an Agilent Infinity II 1260 HPLC to determine reaction completion and radiochemical purity of [^177Lu]Lu-chelator-peptide. HPLC conditions: Waters XBridge BEH C18 Column, 130 Å, 3.5 um, 4.6 mm×250 mm; mobile phase: Solvent A=water (with 0.1% formic acid), solvent B=acetonitrile (with 0.1% formic acid). Gradients: 25-45% B in 10 minutes, 45-65% B in 12 minutes, 65-90% in 6 minutes at a flow rate of 0.5 mL/minute. Required amounts of the product was formulated in 1% PBSA for cell studies.
(§2) The study was conducted using SHP-77, CT26.WT, and CT26.DLL3 cells (Table 7) Adherent cell studies: The cells were cultured in appropriate culture media (20 mL) in tissue culture treated T150 flasks at 37° C. and 5% CO2. Adherent cells were detached (60-70% confluent) using 5 mL Versene at 37° C. for 3 minutes. After confirming the viability using countess and count of detached cells using Trypan blue, the cells were centrifuged at 4° C. for 5 minutes (1,000 rpm). The cell pellet obtained was washed once with PBS and resuspended in 1% PBSA to obtain the desired cell concentration (5-25 million cells/mL).
(§3) Cell numbers used for the assay were in the range of 5 million cells/condition −25 million cells/condition.
(§4) Total uptake: Cells were incubated with 300 μL (0.8 μCi) of the incubation buffer (containing radiolabeled peptide [^177Lu] Lu-test peptide) for 1 hour at 37° C. (Table 8). Post incubation, the cells were pelleted and washed 2 times using cold PBS+1% BSA. The supernatant and washes were combined and counted together as “unbound fraction” in a gamma counter. The cells were then resuspended in 300 μL of 1% PBS+1% BSA and counted in the gamma counter as “bound fraction”.
(§5) In these Tables, “A” represents %≤25; “B” represents 25<%≤50; “C” represents %>50.

SHP-77 tumors = assay: Ex vivo biodistribution of radiolabeled peptides in nude mice bearing SHP-77 tumors; conditions: [177Lu]Lu labelling, nude mice bearing SHP-77 tumors (n = 3), 24 hours post-injection
Protocol: Mice were intravenously injected (via the lateral tail vein) with a bolus dose of the radiolabeled peptides for ex vivo biodistribution studies when tumor volumes were in range of 200-400 mm^3 for xenograft mice and when age of the mice was 5-7 weeks for tumor naïve mice studies. To assess the amount of radionuclide injected into individual mice the syringe was assayed in a dose calibrator before and after injection for [^177Lu]Lu-peptide.
Mice were euthanized at pre-determined time points and selected tissues were resected and collected into pre-weighed tubes. The tubes were then reweighed post resection, the difference giving the weight of each tissue. Radioactivity in each tissue was measured using a gamma counter. Counts were decay corrected to the time of injection and percentage of injected activity per gram (% IA/g) was calculated for each tissue based on the injected activity into each individual mouse. Injected activity was converted to counts based on the sensitivity of the gamma counter. The counts in tissue were then converted to the percentage of injected activity and this was divided by the mass of tissue to give % IA/g.

human DLL3 = molecular target: T1, human DLL3 (Homo sapiens, UniProt Q9NYJ7); assay: Affinity determination by Surface Plasmon Resonance (SPR); assay type: binding; conditions: 25° C., biotinylated human DLL3 immobilized on streptavidin sensor chip, 1:1 binding model; read-out: SPR KD
T1 sequence (Q9NYJ7 27-618): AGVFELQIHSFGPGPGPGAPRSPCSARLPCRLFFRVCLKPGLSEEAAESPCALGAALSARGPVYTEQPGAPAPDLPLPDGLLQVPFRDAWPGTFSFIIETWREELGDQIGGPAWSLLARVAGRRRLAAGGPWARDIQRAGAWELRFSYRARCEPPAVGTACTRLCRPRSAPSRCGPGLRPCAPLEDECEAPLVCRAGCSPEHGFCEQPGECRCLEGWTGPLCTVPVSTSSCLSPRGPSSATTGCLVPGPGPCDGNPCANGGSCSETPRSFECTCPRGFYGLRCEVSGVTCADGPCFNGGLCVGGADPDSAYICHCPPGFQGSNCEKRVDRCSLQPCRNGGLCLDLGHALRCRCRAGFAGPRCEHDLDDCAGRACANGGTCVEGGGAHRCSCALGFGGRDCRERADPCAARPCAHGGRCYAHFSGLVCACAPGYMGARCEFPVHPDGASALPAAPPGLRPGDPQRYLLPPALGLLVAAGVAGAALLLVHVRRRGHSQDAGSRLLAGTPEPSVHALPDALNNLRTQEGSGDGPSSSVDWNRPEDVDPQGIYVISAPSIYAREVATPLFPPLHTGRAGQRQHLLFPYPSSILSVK
Method in brief: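 Kinetic and affinity constants were derived by fitting sensorgrams to a 1:1 binding model. Graded compound concentrations flowed at 100 μL/minute in 20 mM phosphate running buffer with 2% DMSO over streptavidin-immobilized biotinylated human DLL3, reference-subtracted.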

CT26.DLL3 cells [2] = assay: Internalization (out of bound fraction) of [177Lu]Lu-test peptide, CT26.DLL3 cells; assay type: cell-based; conditions: 1 hour at 37° C., glycine pH 2.5 wash
Protocol: as §1, §2, §3, §4
Internalization: The resuspended cells in 300 μl of 1% PBSA and counted in the gamma counter as “bound fraction” were collected in 1.5 mL Eppendorf tube and pelleted. The pelleted cells were incubated with 300 μl of 50 mM Glycine pH=2.5 for 3 minutes and then pelleted discarding the supernatant. This process was repeated one more time. The pelleted cells were washed with 300 μl of cold 1% PBSA and then resuspended in 300 μl 0.3M NaOH. This was counted in the gamma counter as “internalized fraction”.
as §5

kidney uptake (% IA/g) (SHP-77 tumors)	tumor uptake (% IA/g) (SHP-77 tumors)	Kd (human DLL3)	SMILES	% Binding (CT26.DLL3 cells [1])	% Internalization (out of bound fraction) (CT26.DLL3 cells [2])
D (% IA/g > 10 in kidney)	A (0 < % IA/g ≤ 5 in tumor)	< 1 nM	CC[C@H](C)[C@H](NC(=O)[C@@H](NC(=O)[C@H](Cc1c[nH]c2ccccc12)NC(C)=O)[C@@H](C)O)C(=O)N[C@H]1CSSC[C@@H](C(=O)N[C@@H](Cc2c[nH]c3ccccc23)C(=O)N2CCC[C@H]2C(=O)N[C@H](CCCCNC(=O)CN2CCN(CC(=O)O)CCN(CC(=O)O)CCN(CC(=O)O)CC2)C(N)=O)NC(=O)[C@H](CC(N)=O)NC(=O)[C@H](Cc2cnc[nH]2)NC(=O)[C@H](Cc2ccc3ccccc3c2)NC(=O)[C@H](CC(N)=O)NC(=O)[C@H](CC(N)=O)NC1=O [compound 211, Ac-W-T-I-C(3)-N-N-(2Nal)-H-(Asn)-C(3)-W-P-[D-Lys(DOTA)]-NH2] (Ac-WTICNN[2Nal]HNCWP[dK](DOTA)-NH2; disulfide 4-10)	A (%≤25)	B (25<%≤50)
		< 1 nM	CC[C@H](C)[C@H](NC(=O)[C@@H](NC(=O)[C@H](Cc1c[nH]c2ccccc12)NC(C)=O)[C@@H](C)O)C(=O)N[C@H]1CSSC[C@@H](C(=O)N[C@@H](Cc2c[nH]c3ccccc23)C(=O)N2CCC[C@H]2C(=O)N[C@H](CCCCNC(=O)CN2CCN(CC(=O)O)CCN(CC(=O)O)CCN(CC(=O)O)CC2)C(N)=O)NC(=O)[C@H](CC(=O)O)NC(=O)[C@H](CCCCN)NC(=O)[C@H](Cc2ccc3ccccc3c2)NC(=O)[C@H](CC(N)=O)NC(=O)[C@H](CC(N)=O)NC1=O [compound 237, Ac-W-T-I-C(3)-N-N-(2Nal)-K-D-C(3)-W-P-[D-Lys(DOTA)]-NH2] (Ac-WTICNN[2Nal]KDCWP[dK](DOTA)-NH2; disulfide 4-10)	A (%≤25)	
		< 1 nM	CC[C@H](C)[C@H](NC(=O)[C@@H](NC(=O)[C@H](Cc1c[nH]c2ccccc12)NC(C)=O)[C@@H](C)O)C(=O)N[C@H]1CSSC[C@@H](C(=O)N[C@@H](Cc2c[nH]c3ccccc23)C(=O)N2CCC[C@H]2C(=O)N[C@H](CCCCNC(=O)CN2CCN(CC(=O)O)CCN(CC(=O)O)CCN(CC(=O)O)CC2)C(N)=O)NC(=O)[C@H](CC(=O)O)NC(=O)[C@H](Cc2cnc[nH]2)NC(=O)[C@H](Cc2ccc3ccccc3c2)NC(=O)[C@H](CC(N)=O)NC(=O)[C@H](CCCCN)NC1=O [compound 259] (Ac-WTICKN[2Nal]HDCWP[dK](DOTA)-NH2; disulfide 4-10)	B (25<%≤50)	
C (0 < % IA/g ≤ 10 in kidney)	A (0 < % IA/g ≤ 5 in tumor)	< 1 nM	CC[C@H](C)[C@H](NC(=O)[C@@H](NC(=O)[C@H](Cc1c[nH]c2ccccc12)NC(C)=O)[C@@H](C)O)C(=O)N[C@H]1CSSC[C@@H](C(=O)N[C@@H](Cc2c[nH]c3ccccc23)C(=O)N2CCC[C@H]2C(=O)N[C@H](CCCCNC(=O)CN2CCN(CC(=O)O)CCN(CC(=O)O)CCN(CC(=O)O)CC2)C(N)=O)NC(=O)[C@H](CC(=O)O)NC(=O)[C@H](Cc2cnc[nH]2)NC(=O)[C@H](Cc2ccc3ccccc3c2)NC(=O)[C@H](CC(N)=O)NC(=O)[C@H](CC2CCNCC2)NC1=O [compound 260, Ac-W-T-I-C(3)-[3-(4-piperidinyl)-Ala]-N-(2Nal)-H-D-C(3)-W-P-[D-Lys(DOTA)]-NH2] (Ac-WTIC[Ala(piperidin-4-yl)]N[2Nal]HDCWP[dK](DOTA)-NH2; disulfide 4-10)	B (25<%≤50)	
C (0 < % IA/g ≤ 10 in kidney)	A (0 < % IA/g ≤ 5 in tumor)	< 1 nM	CC[C@H](C)[C@H](NC(=O)[C@@H](NC(=O)[C@H](Cc1c[nH]c2ccccc12)NC(C)=O)[C@@H](C)O)C(=O)N[C@H]1CSSC[C@@H](C(=O)N[C@@H](Cc2c[nH]c3ccccc23)C(=O)N2CCC[C@H]2C(=O)N[C@H](CCCCNC(=O)CN2CCN(CC(=O)O)CCN(CC(=O)O)CCN(CC(=O)O)CC2)C(N)=O)NC(=O)[C@H](CC(=O)O)NC(=O)[C@H](Cc2cnc[nH]2)NC(=O)[C@H](Cc2ccc3ccccc3c2)NC(=O)[C@H](CC(N)=O)NC(=O)[C@H](CN2CCOCC2)NC1=O [compound 261, Ac-W-T-I-C(3)-[3-(1-morpholinyl)-Ala]-N-(2Nal)-H-D-C(3)-W-P-[D-Lys(DOTA)]-NH2] (Ac-WTIC[Ala(morpholin-4-yl)]N[2Nal]HDCWP[dK](DOTA)-NH2; disulfide 4-10)	A (%≤25)	B (25<%≤50)
C (0 < % IA/g ≤ 10 in kidney)	A (0 < % IA/g ≤ 5 in tumor)	< 1 nM	CC[C@H](C)[C@H](NC(=O)[C@@H](NC(=O)[C@H](Cc1c[nH]c2ccccc12)NC(C)=O)[C@@H](C)O)C(=O)N[C@H]1CSSC[C@@H](C(=O)N[C@@H](Cc2c[nH]c3ccccc23)C(=O)N2CCC[C@H]2C(=O)N[C@H](CCCCNC(=O)CN2CCN(CC(=O)O)CCN(CC(=O)O)CCN(CC(=O)O)CC2)C(N)=O)NC(=O)[C@H](CC(=O)O)NC(=O)[C@H](Cc2cnc[nH]2)NC(=O)[C@H](Cc2ccc3ccccc3c2)NC(=O)[C@H](CC(N)=O)NC(=O)[C@H](Cc2cccnc2)NC1=O [compound 263, Ac-W-T-I-C(3)-(3Pya)-N-(2Nal)-H-D-C(3)-W-P-[D-Lys(DOTA)]-NH2] (Ac-WTIC[3Pal]N[2Nal]HDCWP[dK](DOTA)-NH2; disulfide 4-10)	A (%≤25)	B (25<%≤50)
C (0 < % IA/g ≤ 10 in kidney)	A (0 < % IA/g ≤ 5 in tumor)	< 1 nM	CC[C@H](C)[C@H](NC(=O)[C@@H](NC(=O)[C@H](Cc1c[nH]c2ccccc12)NC(C)=O)[C@@H](C)O)C(=O)N[C@H]1CSSC[C@@H](C(=O)N[C@@H](Cc2c[nH]c3ccccc23)C(=O)N2CCC[C@H]2C(=O)N[C@H](CCCCNC(=O)CN2CCN(CC(=O)O)CCN(CC(=O)O)CCN(CC(=O)O)CC2)C(N)=O)NC(=O)[C@H](CC(=O)O)NC(=O)[C@H](Cc2cnc[nH]2)NC(=O)[C@H](Cc2ccc3ccccc3c2)NC(=O)[C@H](CC(N)=O)NC(=O)[C@H](Cc2ccncc2)NC1=O [compound 264, Ac-W-T-I-C(3)-(4Pya)-N-(2Nal)-H-D-C(3)-W-P-[D-Lys(DOTA)]-NH2] (Ac-WTIC[4Pal]N[2Nal]HDCWP[dK](DOTA)-NH2; disulfide 4-10)	A (%≤25)	B (25<%≤50)
